What was measured:
[1] = biological target: PI3K-α (PIK3CA) in MDA-MB-453 cells (Homo sapiens, UniProt P42336); assay: PI3K-alpha kinase (PIK3CA) in vitro cell based assay, MDA-MB-453 cells, SureFire Ultra AlphaLisa; settings: read-out: PI3K-α (PIK3CA) in vitro cell based assay IC50
Description: PI3K-Alpha Kinase (PIK3CA) Activity In Vitro Cell Based Assay and Determining IC50 Values for Inhibitors
The MDA-MB-453 (ATCC-HTB-131) cell line was obtained from the American Type Culture Collection (Manassas, VA). Cells were maintained in Dulbecco's Modified Eagle Media (DMEM, Gibco 11965-092) supplemented with 10% Fetal Bovine Serum, heat inactivated (FBS HI, Gibco 10082-147), 1× non-essential amino acids (NEAA, Gibco 11140-050), and 1 mM sodium pyruvate (Gibco 11360-070). Cultures were maintained in a humidified incubator at 37° C. under 5% CO2/95% air.
For compound testing in 0% FBS, MDA-MB-453 cells were seeded at a density of 1.5×10^4 cells per well in white 384-well plates in 20 μl of Minimum Essential Media (MEM) assay media with 1×NEAA, 1 mM sodium pyruvate, and 1 μg/mL human insulin (Sigma I9278). Compounds dissolved in 10 mM stock solutions in DMSO were serially diluted 1:3 in DMSO to generate a 10-point dilution series and plated using an acoustic liquid handler system (Echo 550 Series Liquid Handler, Labcyte). A 5× intermediate compound dilution plate in MEM with 1×NEAA and 1 mM sodium pyruvate (150 μM starting compound concentration in 1.5% DMSO) was then prepared. Five μl of the intermediate serially diluted compounds were added to the cell plate to final concentrations ranging from […] in 0.3% DMSO. 0.3% DMSO alone was used to establish the maximum (MAX) signal and GDC-0032 at a final concentration of 1 μM was used as a reference compound for the minimum (MIN) signal. After 3 hours treatment, the medium was removed, and the cells lysed in 10 μL of 1× SureFire Lysis buffer with shaking for 10 minutes at room temperature. The Acceptor Mix (Reaction Buffer 1+Reaction Buffer 2+Activation Buffer+SureFire Ultra Acceptor Beads) was prepared by diluting Activation buffer 25-fold in combined Reaction Buffer 1 and Reaction Buffer 2. The Acceptor beads were diluted 50-fold in the combined Reaction Buffers. Five μL of Acceptor Mix was added to each well, the plate was sealed and covered with foil and incubated for 1 hour at room temperature. The Donor Mix (dilution buffer+SureFire Ultra Donor Beads) was prepared by diluting Donor Beads 50-fold in dilution buffer. Five μL of the Donor Mix was added to each well and the plate sealed and covered with foil and incubated for 1 hour at room temperature in the dark. The plates were read on a Neo2 plate reader instrument from Biotek using standard AlphaLisa settings. Compounds were tested in duplicate and the average % inhibition at each compound concentration was used to generate a single dose response curve. The data were processed using the Genedata-Screener tool. Relative IC50 values were determined using luminescence units by calculating percent inhibition with respect to the in-plate “MIN” (GDC-0032 reference control) and “MAX” (DMSO) controls. The data was analyzed using a 4-parameter nonlinear logistic equation (four-parameter logistic concentration-response curve): Y=bottom+[(top−bottom)/1+(X/IC50)slope] where Y=% inhibition, X=concentration of inhibitor, bottom=minimum value of y attained by curve-fit, top=maximum value of y attained by curve-fit and slope=steepness of curve at the IC50. % Inhibition=[(signal at X−median Min)/(median Max−median Min)]×100 IC50: concentration of compound that reduces a given response (ligand binding, enzyme response) by 50%. Relative IC50: concentration giving half the compound's maximum response.

[2] = biological target: T1, PI3K-α (PIK3CA) wild-type (WT), p110α/p85α complex (Homo sapiens, UniProt P42336); assay: PI3K-alpha kinase (PIK3CA) biochemical activity, ADP-Glo, wild-type; settings: Soy PI lipid substrate
T1 construct: Recombinant, catalytically active human full length PIK3KA Wild-type and H1047R mutant; 6×His (N); purchased EMD Millipore Sigma 14-602M
How it was run: (§1)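 ADP formation measured by ADP-Glo luminescence after reaction at 27 °C to about 10% ATP turnover, using 20 uM ATP, 50 uM PIP2diC8 or soy PI lipid, HEPES pH 7.4 with MgCl2. Enzyme (1-5 nM WT or H1047R p110α/p85α) and compound preincubated 1 h first; 10-point 1:3 curves fitted four-parameter for IC50.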

[3] = biological target: T2, PI3K-α (PIK3CA) H1047R mutant, p110α/p85α complex (Homo sapiens, UniProt P42336, H1047R); assay: PI3K-alpha kinase (PIK3CA) biochemical activity, ADP-Glo, H1047R mutant; settings: Soy PI lipid substrate
T2 construct: Recombinant, catalytically active human full length PIK3KA Wild-type and H1047R mutant; 6×His (N); purchased EMD Millipore Sigma 14-792M
T2 sequence (P42336 whole entry H1047R): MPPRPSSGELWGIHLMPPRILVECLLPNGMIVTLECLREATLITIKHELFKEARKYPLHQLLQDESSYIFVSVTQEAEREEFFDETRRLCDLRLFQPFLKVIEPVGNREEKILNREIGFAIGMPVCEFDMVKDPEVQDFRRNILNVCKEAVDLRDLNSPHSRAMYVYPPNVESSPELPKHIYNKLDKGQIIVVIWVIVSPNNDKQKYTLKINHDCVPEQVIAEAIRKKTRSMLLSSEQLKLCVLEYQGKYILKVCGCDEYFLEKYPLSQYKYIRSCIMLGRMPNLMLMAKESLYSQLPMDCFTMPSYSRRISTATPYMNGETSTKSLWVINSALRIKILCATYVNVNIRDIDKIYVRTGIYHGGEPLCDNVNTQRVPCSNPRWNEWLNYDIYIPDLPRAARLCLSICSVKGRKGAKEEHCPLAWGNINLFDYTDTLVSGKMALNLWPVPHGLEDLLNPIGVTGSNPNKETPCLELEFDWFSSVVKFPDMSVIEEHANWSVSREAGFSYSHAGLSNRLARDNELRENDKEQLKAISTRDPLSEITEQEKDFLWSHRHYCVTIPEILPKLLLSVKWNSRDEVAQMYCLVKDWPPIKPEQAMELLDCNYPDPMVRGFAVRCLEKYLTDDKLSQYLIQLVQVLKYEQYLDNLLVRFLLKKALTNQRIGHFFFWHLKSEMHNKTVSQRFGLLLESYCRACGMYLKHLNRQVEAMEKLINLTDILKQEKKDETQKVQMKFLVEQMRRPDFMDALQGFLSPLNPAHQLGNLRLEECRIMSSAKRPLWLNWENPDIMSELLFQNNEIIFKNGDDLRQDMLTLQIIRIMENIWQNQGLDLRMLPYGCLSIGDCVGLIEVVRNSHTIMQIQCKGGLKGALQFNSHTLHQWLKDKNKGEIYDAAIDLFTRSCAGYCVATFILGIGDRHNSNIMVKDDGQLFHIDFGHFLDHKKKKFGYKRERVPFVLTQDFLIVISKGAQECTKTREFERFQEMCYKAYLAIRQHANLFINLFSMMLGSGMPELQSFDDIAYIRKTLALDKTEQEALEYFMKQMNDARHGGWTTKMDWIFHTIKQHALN
T2 sequence (P27986 whole entry partner): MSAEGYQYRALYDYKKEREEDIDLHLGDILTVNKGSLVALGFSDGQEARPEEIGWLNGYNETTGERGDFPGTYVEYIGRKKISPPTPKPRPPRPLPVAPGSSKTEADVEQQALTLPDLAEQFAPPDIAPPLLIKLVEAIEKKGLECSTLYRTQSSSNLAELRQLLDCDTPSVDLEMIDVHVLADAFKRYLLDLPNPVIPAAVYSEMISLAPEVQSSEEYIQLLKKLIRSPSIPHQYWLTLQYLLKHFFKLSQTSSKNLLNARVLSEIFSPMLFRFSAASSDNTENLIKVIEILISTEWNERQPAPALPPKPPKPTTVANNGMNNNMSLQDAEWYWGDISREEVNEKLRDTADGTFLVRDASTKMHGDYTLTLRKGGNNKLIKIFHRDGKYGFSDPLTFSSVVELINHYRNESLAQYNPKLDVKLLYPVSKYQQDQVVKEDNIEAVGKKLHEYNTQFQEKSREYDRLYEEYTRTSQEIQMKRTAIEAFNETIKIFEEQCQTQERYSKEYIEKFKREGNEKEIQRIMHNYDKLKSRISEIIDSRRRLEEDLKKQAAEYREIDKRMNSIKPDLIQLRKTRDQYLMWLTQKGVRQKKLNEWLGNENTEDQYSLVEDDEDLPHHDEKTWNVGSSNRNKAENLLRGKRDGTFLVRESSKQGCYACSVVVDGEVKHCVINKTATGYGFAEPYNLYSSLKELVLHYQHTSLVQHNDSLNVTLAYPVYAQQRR
How it was run: as §1

Sequence of PI3K-α (PIK3CA) in MDA-MB-453 cells (P27986 2-724): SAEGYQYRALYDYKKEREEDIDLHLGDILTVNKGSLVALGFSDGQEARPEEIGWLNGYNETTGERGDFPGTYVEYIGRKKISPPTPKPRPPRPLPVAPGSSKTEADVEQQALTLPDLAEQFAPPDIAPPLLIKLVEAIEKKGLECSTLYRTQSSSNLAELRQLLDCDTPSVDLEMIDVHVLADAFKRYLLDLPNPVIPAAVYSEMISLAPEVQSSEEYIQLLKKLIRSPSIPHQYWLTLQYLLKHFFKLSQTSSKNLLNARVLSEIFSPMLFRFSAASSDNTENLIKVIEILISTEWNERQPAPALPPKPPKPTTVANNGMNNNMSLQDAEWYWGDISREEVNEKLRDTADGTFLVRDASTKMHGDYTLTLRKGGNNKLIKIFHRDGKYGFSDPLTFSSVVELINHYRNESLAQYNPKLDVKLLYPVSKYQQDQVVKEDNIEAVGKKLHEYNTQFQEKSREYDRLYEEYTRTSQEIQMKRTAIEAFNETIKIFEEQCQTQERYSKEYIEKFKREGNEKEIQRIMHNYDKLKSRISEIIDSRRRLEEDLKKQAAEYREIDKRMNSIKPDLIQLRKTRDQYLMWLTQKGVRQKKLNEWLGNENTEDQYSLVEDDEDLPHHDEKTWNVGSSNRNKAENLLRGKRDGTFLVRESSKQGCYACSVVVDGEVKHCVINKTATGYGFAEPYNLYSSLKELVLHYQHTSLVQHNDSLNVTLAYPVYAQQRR
Sequence of PI3K-α (PIK3CA) in MDA-MB-453 cells (P42336 whole entry): as the sequence (P42336 whole entry H1047R) above, with R1047H counted along it

| SMILES | IC50 [2] | IC50 [1] | IC50 [3] |
| --- | --- | --- | --- |
| Cc1cc(C(C)Nc2ccccc2C(=O)O)c2oc(-c3ccn4cc(C)nc4c3)cc(=O)c2c1 (single isomer, unassigned) [Example 3, 2-[1-[6-Methyl-2-(2-methylimidazo[1,2-a]pyridin-7-yl)-4-oxo-chromen-8-yl]ethylamino]benzoic acid] | 1000 to 5000 nM | 50 to 100 nM | < 500 nM |
| Cc1cc(C(C)Nc2ccccc2C(=O)O)c2oc(-c3ccc4cc[nH]c4n3)cc(=O)c2c1 (single isomer, unassigned) [Example 4, 2-[1-[6-Methyl-4-oxo-2-(1H-pyrrolo[2,3-b]pyridin-6-yl)chromen-8-yl]ethylamino]benzoic acid] | 500 to 1000 nM | < 50 nM | < 500 nM |
| Cc1cc(C(C)Nc2ccccc2C(=O)O)c2oc(-c3ccc4oc(C)nc4c3)cc(=O)c2c1 (single isomer, unassigned) [Example 19, 2-[1-[6-Methyl-2-(2-methyl-1,3-benzoxazol-5-yl)-4-oxo-chromen-8-yl]ethylamino]benzoic acid] | 1000 to 5000 nM | > 500 nM | < 500 nM |
| Cc1cc(C(C)Nc2ccccc2C(=O)O)c2oc(-c3cc4cnccc4o3)cc(=O)c2c1 (single isomer, unassigned) [Example 22, 2-[1-(2-Furo[3,2-c]pyridin-2-yl-6-methyl-4-oxo-chromen-8-yl)ethylamino]benzoic acid] | 500 to 1000 nM | < 50 nM | < 500 nM |
| Cc1cc(C(C)Nc2ccccc2C(=O)O)c2oc(-c3ccc4oc(=O)[nH]c4c3)cc(=O)c2c1 (single isomer, unassigned) [Example 24, 2-[1-[6-Methyl-4-oxo-2-(2-oxo-3H-1,3-benzoxazol-5-yl)chromen-8-yl]ethylamino]benzoic acid] | 1000 to 5000 nM | 50 to 100 nM | < 500 nM |
| Cc1cc(C(C)Nc2ccccc2C(=O)O)c2oc(-c3ccc4cnn(C)c4c3)cc(=O)c2c1 (single isomer, unassigned) [Example 25, 2-[1-[6-Methyl-2-(1-methylindazol-6-yl)-4-oxo-chromen-8-yl]ethylamino]benzoic acid] | < 500 nM | 50 to 100 nM | < 500 nM |
| Cc1cc(C(C)Nc2ccccc2C(=O)O)c2oc(-c3ccc4c(cnn4C)c3)cc(=O)c2c1 (single isomer, unassigned) [Example 26, 2-[1-[6-Methyl-2-(1-methylindazol-5-yl)-4-oxo-chromen-8-yl]ethylamino]benzoic acid] | < 500 nM | < 50 nM | < 500 nM |
| Cc1cc(C(C)Nc2ccccc2C(=O)O)c2oc(-c3ccc4c(C)nn(C)c4c3)cc(=O)c2c1 (single isomer, unassigned) [Example 27, 2-[1-[2-(1,3-Dimethylindazol-6-yl)-6-methyl-4-oxo-chromen-8-yl]ethylamino]benzoic acid] | 500 to 1000 nM | < 50 nM | < 500 nM |
| Cc1cc(C(C)Nc2ccccc2C(=O)O)c2oc(-c3ccc4c(c3)c(C)nn4C)cc(=O)c2c1 (single isomer, unassigned) [Example 59, 2-[1-[2-(1,3-Dimethylindazol-5-yl)-6-methyl-4-oxo-chromen-8-yl]ethylamino]benzoic acid] |  | < 50 nM | < 500 nM |
| Cc1cc(C(C)Nc2ccccc2C(=O)O)c2oc(-c3cc4ccncc4o3)cc(=O)c2c1 (stereo not shown) [Example 152, 2-[1-(2-Furo[2,3-c]pyridin-2-yl-6-methyl-4-oxo-chromen-8-yl)ethylamino]benzoic acid] | 1000 to 5000 nM |  | < 500 nM |

Now from value to compound, other results behind:

| IC50 [2] | SMILES | IC50 [1] | IC50 [3] |
| --- | --- | --- | --- |
| 1000 to 5000 nM | Cc1cc(C(C)Nc2ccccc2C(=O)O)c2oc(-c3ccc4cn(C)nc4c3)cc(=O)c2c1 (single isomer, unassigned) [Example 1, 2-[1-[6-Methyl-2-(2-methylindazol-6-yl)-4-oxo-chromen-8-yl]ethylamino]benzoic acid] | 50 to 100 nM | < 500 nM |
| 500 to 1000 nM | Cc1cc(C(C)Nc2ccccc2C(=O)O)c2oc(-c3ccc4nn(C)cc4c3)cc(=O)c2c1 (single isomer, unassigned) [Example 8, 2-[1-[6-Methyl-2-(2-methylindazol-5-yl)-4-oxo-chromen-8-yl]ethylamino]benzoic acid] | < 50 nM | < 500 nM |
| 5000 to 10000 nM | Cc1cc(C(C)Nc2ccccc2C(=O)O)c2oc(-c3ccc4c(c3)CN(C)C4=O)cc(=O)c2c1 (single isomer, unassigned) [Example 32, 2-[1-[6-Methyl-2-(2-methyl-1-oxo-isoindolin-5-yl)-4-oxo-chromen-8-yl]ethylamino]benzoic acid] | > 500 nM | > 10000 nM |
| > 10000 nM | Cc1cc(C(C)Nc2ccccc2C(=O)O)c2oc(-c3cnn4cccnc34)cc(=O)c2c1 (single isomer, unassigned) [Example 33, 2-[1-(6-Methyl-4-oxo-2-pyrazolo[1,5-a]pyrimidin-3-yl-chromen-8-yl)ethylamino]benzoic acid] | > 500 nM | > 10000 nM |
| 1000 to 5000 nM | Cc1cc(C(C)Nc2ccc(C)nc2C(=O)O)c2oc(-c3cc4ccccc4[nH]3)cc(=O)c2c1 (stereo not shown) [Example 99, 3-[1-[2-(1H-Indol-2-yl)-6-methyl-4-oxo-chromen-8-yl]ethylamino]-6-methyl-pyridine-2-carboxylic acid] |  | 1000 to 5000 nM |
| 1000 to 5000 nM | Cc1cc(C(C)Nc2cccc(F)c2C(=O)O)c2oc(-c3ccc4nn(C)cc4c3)cc(=O)c2c1 (stereo not shown) [Example 103, 2-Fluoro-6-[1-[6-methyl-2-(2-methylindazol-5-yl)-4-oxo-chromen-8-yl]ethylamino]benzoic acid] |  | < 500 nM |
| > 10000 nM | CC(Nc1ccc(Cl)nc1C(=O)O)c1cc(C(F)(F)F)cc2c(=O)cc(-c3cc(Cl)c4nn(C)cc4c3)oc12 (stereo not shown) [Example 173, 6-Chloro-3-[1-[2-(7-chloro-2-methyl-indazol-5-yl)-4-oxo-6-(trifluoromethyl)chromen-8-yl]ethylamino]pyridine-2-carboxylic acid] |  | < 500 nM |
| > 10000 nM | Cc1cc(-c2cc(=O)c3cc(C(F)(F)F)cc(C(C)Nc4ccc(Cl)nc4C(=O)O)c3o2)cc2cn(C)nc12 (stereo not shown) [Example 174, 6-Chloro-3-[1-[2-(2,7-dimethylindazol-5-yl)-4-oxo-6-(trifluoromethyl)chromen-8-yl]ethylamino]pyridine-2-carboxylic acid] |  | < 500 nM |
| > 10000 nM | CC(Nc1cccnc1C(=O)O)c1cc(C(F)(F)F)cc2c(=O)cc(-c3cc4ccccc4[nH]3)oc12 (stereo not shown) [Example 185, 3-[1-[2-(1H-Indol-2-yl)-4-oxo-6-(trifluoromethyl)chromen-8-yl]ethylamino]pyridine-2-carboxylic acid] |  | > 10000 nM |
| 500 to 1000 nM | Cc1cc([C@@H](C)Nc2ccc(C)nc2C(=O)O)c2oc(-c3ccc4nn(C)cc4c3)c(C)c(=O)c2c1 [Example 200, 3-[[(1R)-1-[3,6-Dimethyl-2-(2-methylindazol-5-yl)-4-oxo-chromen-8-yl]ethyl]amino]-6-methyl-pyridine-2-carboxylic acid] |  | < 500 nM |
